# Assay results: patent US20110166121A1 (LG LIFE SCIENCES LTD., priority 2008, published 2011)
# What was measured:
# [1] = system: Human platelet aggregation caused by ADP; assay: Inhibition of ADP-induced platelet aggregation (Mimic-human PRP); format: cell-based; conditions: 20 μM ADP, human platelet concentrate diluted with PPP, absorption at 595 nm
# Method in brief: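 Ki came from non-linear sigmoidal fits of inhibition, measured as the 3-min rise in absorbance at 595 nm after 20 μM ADP, relative to 0/20 μM ADP controls. Platelets (3–4×10^8/mL in PPP-diluted human PRP) were exposed to 0.01–30 μM compound for 20 min at room temperature beforehand.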
# Human P2Y12 receptor = molecular target: T1, Human P2Y12 receptor (Homo sapiens, UniProt Q9H244); assay: Human P2Y12 receptor cell membrane binding assay with [3H] 2-Mes-ADP; conditions: 1 nM [3H] 2-Mes-ADP, membranes of HEK cells expressing P2Y12 receptor; read-out: Binding activity (IC50)
# T1 construct: expressed in transfected cells; host or cells: HEK cells
# Method in brief: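 Competition binding used 1 nM [3H]2-MeS-ADP on P2Y12-expressing HEK cell membranes for 1 h at room temperature, followed by filtration and scintillation counting.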
# T1 sequence (Q9H244 whole entry): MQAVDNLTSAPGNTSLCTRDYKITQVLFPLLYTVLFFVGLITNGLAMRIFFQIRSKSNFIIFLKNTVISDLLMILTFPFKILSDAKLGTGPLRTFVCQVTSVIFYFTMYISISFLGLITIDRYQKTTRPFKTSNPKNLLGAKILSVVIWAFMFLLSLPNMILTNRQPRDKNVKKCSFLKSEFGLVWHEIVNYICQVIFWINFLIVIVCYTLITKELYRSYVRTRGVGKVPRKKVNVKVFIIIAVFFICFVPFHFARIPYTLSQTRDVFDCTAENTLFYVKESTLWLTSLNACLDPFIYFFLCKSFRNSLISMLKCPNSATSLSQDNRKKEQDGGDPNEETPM
SMILES,Ki [1],IC50 (Human P2Y12 receptor)
"CCc1cc2c(N3CCn4c(C)nnc4C3)nc(N3CCNC(=O)C3)nc2s1 [Example 6-12, 4-[6-Ethyl-4-(3-methyl-5,6-dihydro-8H-[1,2,4]triazolo[4,3-a]pyrazin-7-yl)-thieno[2,3-d]pyrimidin-2-yl]-piperazin-2-one]",809 nM,760 nM
"CCc1cc2c(N3CCn4c(C)nnc4C3)nc(OCC(O)CO)nc2s1 (centres unmarked) [Example 6-13, 3-[6-Ethyl-4-(3-methyl-5,6-dihydro-8H-[1,2,4]triazolo[4,3-a]pyrazin-7-yl)-thieno[2,3-d]pyrimidin-2-yloxy]-propane-1,2-diol]",716 nM,2460 nM
"CCCc1cc2c(N3CCn4c(C)nnc4C3)nc(N3CCNC(=O)C3)nc2s1 [Example 6-14, 4-[4-(3-Methyl-5,6-dihydro-8H-[1,2,4]triazolo[4,3-a]pyrazin-7-yl)-6-propyl-thieno[2,3-d]pyrimidin-2-yl]-piperazin-2-one]",260 nM,322 nM
"CCCc1cc2c(N3CCn4c(C)nnc4C3)nc(OCC(O)CO)nc2s1 (centres unmarked) [Example 6-15, 3-[4-(3-Methyl-5,6-dihydro-8H-[1,2,4]triazolo[4,3-a]pyrazin-7-yl)-6-propyl-thieno[2,3-d]pyrimidin-2-yloxy]-propane-1,2-diol]",190 nM,400 nM
"CCCc1cc2c(N3CCn4c(C)nnc4C3)nc(OCCO)nc2s1 [Example 6-16, 2-[4-(3-Methyl-5,6-dihydro-8H-[1,2,4]triazolo[4,3-a]pyrazin-7-yl)-6-propyl-thieno[2,3-d]pyrimidin-2-yloxy]-ethanol]",61 nM,310 nM
"CCCc1cc2c(N3CCn4c(C)nnc4C3)nc(OCCCO)nc2s1 [Example 6-17, 3-[4-(3-Methyl-5,6-dihydro-8H-[1,2,4]triazolo[4,3-a]pyrazin-7-yl)-6-propyl-thieno[2,3-d]pyrimidin-2-yloxy]-propan-1-ol]",400 nM,750 nM
"CCCc1cc2c(N3CCn4c(C)nnc4C3)nc(OCC(CO)CO)nc2s1 [Example 6-18, 2-[4-(3-Methyl-5,6-dihydro-8H-[1,2,4]triazolo[4,3-a]pyrazin-7-yl)-6-propyl-thieno[2,3-d]pyrimidin-2-yloxymethyl]-propane-1,3-diol]",300 nM,670 nM
